In publication PMC9123294, “Role of LL-37 in thrombotic complications in patients with COVID-19” (Cellular and Molecular Life Sciences: CMLS, 2022) one finds Kd data, which are given here for 2 molecules.

In test [1] the target is Human alpha thrombin (Homo sapiens, UniProt P00734). Description: biochemical. The protocol: SPR analysis was performed as described previously, with some modifications. Briefly, thrombin and FXa were immobilized on the activated sensor chip CM-5 by amine coupling. […] The equilibrium dissociation constant (KD) was calculated using the Langmuir model with Biacore evaluation software provided by the manufacturer.

For test [2], the target named is T1, Human factor Xa (human, UniProt P00742 41-179; P00742 235-488).
T1 construct: also called FXa; source: bought: Enzyme Research Laboratories (HFXa 1011)
The test is described as follows: SPR; thrombin and FXa immobilised on a CM-5 sensor chip by amine coupling; LL-37 or Cramp flowed in HBS-EP+ running buffer at 30 ul/min; BIAcore 3000; KD from the Langmuir model. The conditions noted are these: both partners purified. In general terms: In SPR one partner is held on a chip, and binding of the other changes the refractive index at the surface.

A word on the Kd: it is the equilibrium constant for the complex coming apart. Low readings indicate tighter binding, high ones weaker binding.

T1 sequence (P00742 41-179, chain 1 of 2): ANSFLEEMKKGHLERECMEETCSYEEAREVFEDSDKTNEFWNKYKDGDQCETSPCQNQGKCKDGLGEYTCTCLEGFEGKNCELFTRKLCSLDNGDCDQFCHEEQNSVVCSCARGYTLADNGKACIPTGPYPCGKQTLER
T1 sequence (P00742 235-488, chain 2 of 2): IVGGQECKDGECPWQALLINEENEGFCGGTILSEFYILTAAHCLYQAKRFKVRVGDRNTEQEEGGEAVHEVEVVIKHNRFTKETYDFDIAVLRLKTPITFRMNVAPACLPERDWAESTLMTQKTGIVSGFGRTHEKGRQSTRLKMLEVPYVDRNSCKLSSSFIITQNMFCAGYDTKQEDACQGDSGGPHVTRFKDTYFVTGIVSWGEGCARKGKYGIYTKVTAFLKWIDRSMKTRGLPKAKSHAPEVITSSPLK

Molecule `CC[C@H](C)[C@H](NC(=O)[C@H](CCCCN)NC(=O)[C@H](CCC(=O)O)NC(=O)[C@H](CCCCN)NC(=O)[C@H](CO)NC(=O)[C@H](CCCCN)NC(=O)[C@H](CCCNC(=N)N)NC(=O)[C@H](Cc1ccccc1)NC(=O)[C@H](Cc1ccccc1)NC(=O)[C@H](CC(=O)O)NC(=O)CNC(=O)[C@H](CC(C)C)NC(=O)[C@@H](N)CC(C)C)C(=O)NCC(=O)N[C@@H](CCCCN)C(=O)N[C@@H](CCC(=O)O)C(=O)N[C@@H](Cc1ccccc1)C(=O)N[C@@H](CCCCN)C(=O)N[C@@H](CCCNC(=N)N)C(=O)N[C@H](C(=O)N[C@H](C(=O)N[C@@H](CCC(N)=O)C(=O)N[C@@H](CCCNC(=N)N)C(=O)N[C@H](C(=O)N[C@@H](CCCCN)C(=O)N[C@@H](CC(=O)O)C(=O)N[C@@H](Cc1ccccc1)C(=O)N[C@@H](CC(C)C)C(=O)N[C@@H](CCCNC(=N)N)C(=O)N[C@@H](CC(N)=O)C(=O)N[C@@H](CC(C)C)C(=O)N[C@H](C(=O)N1CCC[C@H]1C(=O)N[C@@H](CCCNC(=N)N)C(=O)N[C@H](C(=O)N[C@@H](CCC(=O)O)C(=O)N[C@@H](CO)C(=O)O)[C@@H](C)O)C(C)C)[C@@H](C)CC)C(C)C)[C@@H](C)CC` [LL-37] returned a Kd in test [1] of 2.64 µM.

B1: Cramp (peptide)
peptide: GLLRKGGEKIGEKLKKIGQKIKNFFQKLVPQPE
notes: also called LL-37 homolog from Mus musculus; cathelicidin peptide; source: synthetic peptide (GL Biochem, Shanghai; purity > 98%)
In test [2], B1 yielded a Kd of 317 µM.
